Laboratory results from ChEMBL document CHEMBL1134823, “Human beta3 adrenergic receptor agonists containing cyanoguanidine and nitroethylenediamine moieties” (Bioorg Med Chem Lett, 2001).

Key:
[1] = target: T1, Beta-2 adrenergic receptor (Homo sapiens, UniProt P07550); assay: Binding affinity to the human beta-2 adrenergic receptor assayed using [125I]iodocyanopindolol as radioligand in CHO cells; format: cell-based
Target sequence in this assay (P07550 whole entry): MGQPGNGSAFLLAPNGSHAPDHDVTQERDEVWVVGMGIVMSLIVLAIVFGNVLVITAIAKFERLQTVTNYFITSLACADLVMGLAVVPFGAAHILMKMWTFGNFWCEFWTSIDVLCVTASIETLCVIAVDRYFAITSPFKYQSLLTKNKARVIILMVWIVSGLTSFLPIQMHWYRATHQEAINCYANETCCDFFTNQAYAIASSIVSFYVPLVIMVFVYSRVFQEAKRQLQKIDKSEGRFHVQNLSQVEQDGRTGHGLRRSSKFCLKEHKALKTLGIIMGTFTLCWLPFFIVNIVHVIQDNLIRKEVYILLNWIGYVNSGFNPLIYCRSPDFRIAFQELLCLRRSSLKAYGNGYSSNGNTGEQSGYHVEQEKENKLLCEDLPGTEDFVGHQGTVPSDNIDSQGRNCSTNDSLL

[2] = target: T2, Beta-3 adrenergic receptor (Homo sapiens, UniProt P13945); assay: In vitro efficacy at human beta-3 adrenergic receptor.
Target sequence in this assay (P13945 whole entry): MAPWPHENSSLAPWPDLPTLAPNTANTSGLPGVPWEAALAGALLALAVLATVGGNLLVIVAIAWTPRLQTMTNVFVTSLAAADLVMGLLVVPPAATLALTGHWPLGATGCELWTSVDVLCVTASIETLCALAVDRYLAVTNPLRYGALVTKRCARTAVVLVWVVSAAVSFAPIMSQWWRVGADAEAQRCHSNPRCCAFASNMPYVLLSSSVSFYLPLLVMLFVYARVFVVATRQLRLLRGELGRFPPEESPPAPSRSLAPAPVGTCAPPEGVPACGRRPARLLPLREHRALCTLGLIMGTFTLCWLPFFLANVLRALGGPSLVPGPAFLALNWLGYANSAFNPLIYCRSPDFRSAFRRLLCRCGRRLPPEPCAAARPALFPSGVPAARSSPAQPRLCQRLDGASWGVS

[3] = target: T2, Beta-3 adrenergic receptor; assay: In vitro maximum activation of adenylyl cyclase compared to isoproterenol.; format: functional
Target sequence in this assay (P13945 whole entry, looked up): as the sequence (P13945 whole entry) above

[4] = target: T3, Beta-1 adrenergic receptor (Homo sapiens, UniProt P08588); assay: Binding affinity for human Beta-1 adrenergic receptor using [125I]iodocyanopindolol as radioligand in CHO cells; format: cell-based
Target sequence in this assay (P08588 whole entry): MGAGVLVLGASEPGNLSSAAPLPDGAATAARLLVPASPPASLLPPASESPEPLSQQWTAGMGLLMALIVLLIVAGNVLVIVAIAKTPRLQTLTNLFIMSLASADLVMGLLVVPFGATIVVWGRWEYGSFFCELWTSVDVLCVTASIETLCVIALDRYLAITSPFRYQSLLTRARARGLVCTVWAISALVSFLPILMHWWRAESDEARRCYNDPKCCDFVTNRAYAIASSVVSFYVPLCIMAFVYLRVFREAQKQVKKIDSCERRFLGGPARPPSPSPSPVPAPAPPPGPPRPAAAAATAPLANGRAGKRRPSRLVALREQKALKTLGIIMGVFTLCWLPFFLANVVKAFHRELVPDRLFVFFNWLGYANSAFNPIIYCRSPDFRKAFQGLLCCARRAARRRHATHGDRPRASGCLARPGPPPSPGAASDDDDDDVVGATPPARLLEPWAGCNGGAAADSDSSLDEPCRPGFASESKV

[5] = target: T3, Beta-1 adrenergic receptor; assay: (§1) Percent of maximal stimulation was determined as adenylate cyclase activation using isoproterenol as standard at a concentration of 10000 nM; format: functional
Target sequence in this assay (P08588 whole entry, looked up): as the sequence (P08588 whole entry) above

[6] = target: T1, Beta-2 adrenergic receptor; assay: as §1; format: functional
Target sequence in this assay (P07550 whole entry, looked up): as the sequence (P07550 whole entry) above

[7] = target: T3, Beta-1 adrenergic receptor; assay: Percent of maximal stimulation was determined as adenylate cyclase activation using isoproterenol as standard; format: functional
Target sequence in this assay (P08588 whole entry, looked up): as the sequence (P08588 whole entry) above

[8] = target: T1, Beta-2 adrenergic receptor; assay: Percent of maximal stimulation was determined as adenylate cyclase activation using isoproterenol as standard at a concentration of 10000 nM
Target sequence in this assay (P07550 whole entry, looked up): as the sequence (P07550 whole entry) above

[9] = target: T3, Beta-1 adrenergic receptor; assay: Binding affinity towards human Beta-1 adrenergic receptor
Target sequence in this assay (P08588 whole entry): as the sequence (P08588 whole entry) above

[10] = target: T2, Beta-3 adrenergic receptor; assay: Percent of maximal stimulation was determined as adenylate cyclase activation using isoproterenol as standard at a concentration of 1000 nM; format: functional
Target sequence in this assay (P13945 whole entry, looked up): as the sequence (P13945 whole entry) above

Row | IC50 [1] | EC50 [2] | Activation [3] | IC50 [4] | Compound | further results
1 | 2400 nM | 300 nM | 79% | 3000 nM | O=[N+]([O-])/C=C(\Nc1ccc(CCNC[C@H](O)c2cccnc2)cc1)Nc1cccc(F)c1 | 
2 |  |  | 62% |  | N#CN/C(=N\c1ccc2c(c1)CCN2c1nc(-c2ccc(OC(F)(F)F)cc2)cs1)Nc1ccc2cc(CCNC[C@H](O)c3cccnc3)ccc2c1 | Activation [5]: 2%; Activation [6]: 11%
3 | 50 nM | 11 nM |  | 16 nM | CCCCCCCCc1csc(N2CCc3cc(NC(=NC#N)Nc4ccc(CCNC[C@H](O)c5cccnc5)cc4)ccc32)n1 | 
4 |  |  | 82% |  | N#CN/C(=N\c1ccc2c(c1)CCN2c1nc(-c2ccc(OC(F)(F)F)cc2)cs1)Nc1ccc(CCNC[C@H](O)c2cccnc2)cc1 | Activation [7]: 73%; Activation [8]: 51%
5 | > 10000 nM | 57 nM | 72% | 8400 nM | N#CN/C(=N\c1cccc2c1CCN2c1nc(-c2ccc(OC(F)(F)F)cc2)cs1)Nc1ccc(CCNC[C@H](O)c2cccnc2)cc1 | Activation [5]: 6%; Activation [6]: 20%
6 | 7100 nM | 19 nM |  | 2300 nM | N#CN=C(Nc1ccc2c(c1)CCN2c1nc(-c2ccc(OC(F)(F)F)cc2)cs1)Nc1ccc2cc(CCNC[C@H](O)c3cccnc3)ccc2c1 | 
7 |  |  | 64% |  | N#CN/C(=N\c1cccc2ccccc12)Nc1ccc(CCNC[C@H](O)c2cccnc2)cc1 | 
8 |  |  | 69% |  | N#CN/C(=N\c1cccc(F)c1)Nc1ccc(CCNC[C@H](O)c2cccnc2)cc1 | 
9 |  |  | 41% |  | N#CN/C(=N\c1ccc2ccccc2c1)Nc1ccc(CCNC[C@H](O)c2cccnc2)cc1 | 
10 | 180 nM | 13 nM |  | 65 nM | N#CN=C(Nc1ccc(CCNC[C@H](O)c2cccnc2)cc1)Nc1ccc2c(c1)CCN2c1nc(-c2ccc(OC(F)(F)F)cc2)cs1 | EC50 [9]: 41 nM
11 | 140 nM | 89 nM | 72% | 290 nM | N#CN/C(=N\c1cc(Cl)cc(Cl)c1)Nc1ccc(CCNC[C@H](O)c2cccnc2)cc1 | 
12 | 570 nM | 42 nM |  | 480 nM | N#CN=C(Nc1ccc(CCNC[C@H](O)c2cccnc2)cc1)Nc1cccc2ccccc12 | 
13 | 930 nM | 13 nM | 62% | 1200 nM | CCCCCCCCc1csc(N2CCc3c(N/C(=N/c4ccc(CCNC[C@H](O)c5cccnc5)cc4)NC#N)cccc32)n1 | Activation [5]: 11%; Activation [6]: 25%
14 | 5600 nM | 35 nM | 85% | 3800 nM | O=[N+]([O-])/C=C(\Nc1ccc(CCNC[C@H](O)c2cccnc2)cc1)Nc1cc(Cl)cc(Cl)c1 | 
15 |  |  | 39% |  | CCCCCCCCc1csc(N2CCc3cc(N/C(=N/c4ccc(CCNC[C@H](O)c5cccnc5)cc4)NC#N)ccc32)n1 | 
16 | 710 nM |  |  | 620 nM | N#CN/C(=N\c1ccc2c(c1)N(c1nc(-c3ccc(OC(F)(F)F)cc3)cs1)CC2)Nc1ccc(CCNC[C@H](O)c2cccnc2)cc1 | Activation [10]: 11%; Activation [5]: 27%; Activation [6]: 20%
17 |  |  | 51% |  | N#CN/C(=N\c1cccc(I)c1)Nc1ccc(CCNC[C@H](O)c2cccnc2)cc1 | 
18 | 200 nM | 100 nM |  | 590 nM | N#CN=C(Nc1ccc(CCNC[C@H](O)c2cccnc2)cc1)Nc1cccc(F)c1 | 
19 | 260 nM | 5.3 nM |  | 110 nM | CCCCCCCCc1csc(N2CCc3cc(N/C(S)=N/c4ccc(CCNC[C@H](O)c5cccnc5)cc4)ccc32)n1 | 
20 | 1300 nM | 0.93 nM |  | 2500 nM | CCCCCCCCc1csc(N2CCc3cc(S(=O)(=O)Nc4ccc(CCNC[C@H](O)c5cccnc5)cc4)ccc32)n1 | 
21 | 66 nM | 59 nM | 38% | 74 nM | CCCCCCCCc1csc(N2CCc3ccc(N/C(=N/c4ccc(CCNC[C@H](O)c5cccnc5)cc4)NC#N)cc32)n1 | 
22 | 1200 nM | 22 nM | 97% | 1100 nM | O=[N+]([O-])/C=C(\Nc1ccc(CCNC[C@H](O)c2cccnc2)cc1)Nc1cccc(I)c1 | 
23 | 170 nM | 100 nM | 38% | 730 nM | N#CN/C(=N\c1ccc(I)cc1)Nc1ccc(CCNC[C@H](O)c2cccnc2)cc1 | 

Row | Compound | IC50 [1] | EC50 [2] | Activation [3] | IC50 [4] | further results
24 | O=[N+]([O-])/C=C(\Nc1ccc(CCNC[C@H](O)c2cccnc2)cc1)Nc1cccc(Oc2ccccc2)c1 | 220 nM | 120 nM | 93% | 830 nM | 
25 | N#CN/C(=N\c1cccc(Oc2ccccc2)c1)Nc1ccc(CCNC[C@H](O)c2cccnc2)cc1 | 40 nM | 26 nM | 70% | 240 nM | 
26 | N#CN/C(=N\c1ccc(CCNC[C@H](O)c2cccnc2)cc1)Nc1cccc(C(N)=O)c1 | 400 nM | 150 nM | 76% | 980 nM | 
27 | N#CN=C(Nc1ccc(CCNC[C@H](O)c2cccnc2)cc1)Nc1ccc2ccccc2c1 | 50 nM | 130 nM |  | 740 nM | 
28 | NC(=O)c1cccc(N/C(=C/[N+](=O)[O-])Nc2ccc(CCNC[C@H](O)c3cccnc3)cc2)c1 | 1200 nM | 10 nM | 101% | 790 nM | 
29 | N#CN=C(Nc1ccc(CCNC[C@H](O)c2cccnc2)cc1)Nc1cccc(I)c1 | 67 nM | 59 nM |  | 230 nM | 
30 | O=[N+]([O-])/C=C(\Nc1ccc(CCNC[C@H](O)c2cccnc2)cc1)Nc1cccc2ccccc12 | 370 nM | 140 nM | 79% | 1800 nM | 
31 | O=[N+]([O-])/C=C(\Nc1ccc(CCNC[C@H](O)c2cccnc2)cc1)Nc1ccc2ccccc2c1 | 3400 nM | 180 nM | 74% | 820 nM | 
